Results taken from patent US20240366598A1, “GLUCOSE-DEPENDENT INSULINOTROPIC POLYPEPTIDE RECEPTOR ANTAGONISTS AND USES THEREOF” (Pfizer Inc., priority 2023, published 2024).
Structures can show the parent of a compound that is named as a salt.

Molecular target: T1, human Glucose-dependent Insulinotropic Polypeptide Receptor (hGIPR) (Homo sapiens, UniProt P48546)
T1 sequence (P48546 22-466): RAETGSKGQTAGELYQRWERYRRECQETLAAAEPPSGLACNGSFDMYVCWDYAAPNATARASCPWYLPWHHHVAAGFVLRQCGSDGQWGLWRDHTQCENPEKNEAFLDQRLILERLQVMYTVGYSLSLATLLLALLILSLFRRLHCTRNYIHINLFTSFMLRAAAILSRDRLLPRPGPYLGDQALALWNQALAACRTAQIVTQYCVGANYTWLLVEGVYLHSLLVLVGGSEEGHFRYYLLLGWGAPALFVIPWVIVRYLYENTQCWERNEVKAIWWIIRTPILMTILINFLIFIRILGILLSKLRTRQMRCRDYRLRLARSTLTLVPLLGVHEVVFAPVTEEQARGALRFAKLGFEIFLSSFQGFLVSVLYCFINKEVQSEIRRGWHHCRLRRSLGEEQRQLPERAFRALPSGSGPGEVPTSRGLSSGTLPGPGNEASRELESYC
Experiment: Functional in vitro GIPR antagonist potency assay (cAMP HTRF, CHO-K1 cells stably expressing hGIPR, hGIP stimulation at about EC80)
Assay type: cell-based
Settings: geometric mean, hGIP at estimated EC80, examples marked ^2: overall geometric mean of multiple forms (including salts) tested
Procedure, shortened: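 HTRF quantification of cAMP after stimulation with hGIP at an estimated EC80 for 30 min at 37 °C. Before stimulation, hGIPR-expressing CHO-K1 cells were exposed 2 h to test compound in IBMX-containing buffer, with 0.5% DMSO final. Percent effect is referenced to agonist alone (0%) and to 80 μM of a reference antagonist (100%), and runs required the agonist concentration to fall within the on-the-day EC50–EC90.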

IC50 [nM]	Compound
14	Cc1ccc(CNC(=O)N2CCC[C@@H]2C(=O)Nc2ccc(-c3ccc(C(=O)O)cc3)cc2)cc1F [Example 129, 4′-[(1-{[(3-fluoro-4-methylphenyl)methyl]carbamoyl}-D-prolyl)amino][1,1′-biphenyl]-4-carboxylic acid]
11	O=C(O)c1ccc(-c2ccc(NC(=O)[C@H]3CCCN3C(=O)NCc3ccc(C(F)(F)F)c(Cl)c3)cc2)cc1 [Example 130, 4′-{[1-({[3-chloro-4-(trifluoromethyl)phenyl]methyl}carbamoyl)-D-prolyl]amino}[1,1′-biphenyl]-4-carboxylic acid]
140	O=C(O)c1ccc(-c2ccc(NC(=O)[C@H]3CCCN3C(=O)NCc3ccc(C(F)(F)F)cc3F)cc2)cc1 [Example 131, 4′-{[1-({[2-fluoro-4-(trifluoromethyl)phenyl]methyl}carbamoyl)-D-prolyl]amino}[1,1′-biphenyl]-4-carboxylic acid]
77	O=C(O)c1ccc(-c2ccc(NC(=O)[C@H]3CCCN3C(=O)NCc3ccc(Cl)cc3F)cc2)cc1 [Example 132, 4′-[(1-{[(4-chloro-2-fluorophenyl)methyl]carbamoyl}-D-prolyl)amino][1,1′-biphenyl]-4-carboxylic acid]
180	O=C(O)c1ccc(-c2ccc(NC(=O)[C@H]3CCCN3C(=O)NCc3c(F)cc(Cl)cc3F)cc2)cc1 [Example 133, 4′-[(1-{[(4-chloro-2,6-difluorophenyl)methyl]carbamoyl}-D-prolyl)amino][1,1′-biphenyl]-4-carboxylic acid]
140	COc1cc(C(F)(F)F)ccc1NC(=O)N1CCC[C@@H]1C(=O)Nc1ccc(-c2ccc(C(=O)O)cc2)cc1 [Example 134, 4′-[(1-{[2-methoxy-4-(trifluoromethyl)phenyl]carbamoyl}-D-prolyl)amino][1,1′-biphenyl]-4-carboxylic acid]
52	CC(C)c1ccc(NC(=O)N2CCC[C@@H]2C(=O)Nc2ccc(-c3ccc(C(=O)O)cc3)cc2)c(Cl)c1 [Example 135, 4′-[(1-{[2-chloro-4-(propan-2-yl)phenyl]carbamoyl}-D-prolyl)amino][1,1′-biphenyl]-4-carboxylic acid]
7.8	O=C(O)c1ccc(-c2ccc(NC(=O)[C@H]3CCCN3C(=O)NCc3ccc(C4CC4)cc3)cc2)cc1 [Example 136, 4′-[(1-{[(4-cyclopropylphenyl)methyl]carbamoyl}-D-prolyl)amino][1,1′-biphenyl]-4-carboxylic acid]
9.8	CC(C)Cc1ccc(CNC(=O)N2CCC[C@@H]2C(=O)Nc2ccc(-c3ccc(C(=O)O)cc3)cc2)cc1 [Example 137, 4′-{[1-{{[4-(2-methylpropyl)phenyl]methyl}carbamoyl)-D-prolyl]amino}[1,1′-biphenyl]-4-carboxylic acid]
42	O=C(O)c1ccc(-c2ccc(NC(=O)[C@H]3CCCN3C(=O)NCc3cc(F)c(Cl)cc3F)cc2)cc1 [Example 138, 4′-[(1-{[(4-chloro-2,5-difluorophenyl)methyl]carbamoyl}-D-prolyl)amino][1,1′-biphenyl]-4-carboxylic acid]
93	O=C(O)c1ccc(-c2ccc(NC(=O)[C@H]3CCCN3C(=O)NCc3ccc(C(F)(F)F)cc3Cl)cc2)cc1 [Example 139, 4′-{[1-({[2-chloro-4-(trifluoromethyl)phenyl]methyl}carbamoyl)-D-prolyl]amino}[1,1′-biphenyl]-4-carboxylic acid]
67	O=C(O)c1ccc(-c2ccc(NC(=O)[C@H]3CCCN3C(=O)Nc3ccc(C4CC4)cc3F)cc2)cc1 [Example 140, 4′-({1-[(4-cyclopropyl-2-fluorophenyl)carbamoyl]-D-prolyl}amino)[1,1′-biphenyl]-4-carboxylic acid]
97	O=C(O)c1ccc(-c2ccc(NC(=O)[C@H]3CCCN3C(=O)NCc3ccc(C(F)F)cc3)cc2)cc1 [Example 141, 4′-{[1-({[4-(difluoromethyl)phenyl]methyl}carbamoyl)-D-prolyl]amino}[1,1′-biphenyl]-4-carboxylic acid]
130	Cc1cc(C2CC2)ccc1NC(=O)N1CCC[C@@H]1C(=O)Nc1ccc(-c2ccc(C(=O)O)cc2)cc1 [Example 142, 4′-({1-[(4-cyclopropyl-2-methylphenyl)carbamoyl]-D-prolyl}amino)[1,1′-biphenyl]-4-carboxylic acid]
35	COc1cc(NC(=O)N2CCC[C@@H]2C(=O)Nc2ccc(-c3ccc(C(=O)O)cc3)cc2)ccc1C(F)(F)F [Example 143, 4′-[(1-{[3-methoxy-4-(trifluoromethyl)phenyl]carbamoyl}-D-prolyl)amino][1,1′-biphenyl]-4-carboxylic acid]
6.1	Cc1cc(NC(=O)N2CCC[C@@H]2C(=O)Nc2ccc(-c3ccc(C(=O)O)cc3)cc2)ccc1C1CC1 [Example 144, 4′-({1-[(4-cyclopropyl-3-methylphenyl)carbamoyl]-D-prolyl}amino)[1,1′-biphenyl]-4-carboxylic acid]
70	Cc1cc(NC(=O)N2CCC[C@@H]2C(=O)Nc2ccc(-c3ccc(C(=O)O)cc3)cc2)cnc1C(C)C [Example 145, 4′-[(1-{[5-methyl-6-(propan-2-yl)pyridin-3-yl]carbamoyl}-D-prolyl)amino][1,1′-biphenyl]-4-carboxylic acid, trifluoroacetate salt]
9.7	Cc1cc(NC(=O)N2CCC[C@@H]2C(=O)Nc2ccc(-c3ccc(C(=O)O)cc3)cc2)ncc1C(C)C [Example 146, 4′-[(1-{[4-methyl-5-(propan-2-yl)pyridin-2-yl]carbamoyl}-D-prolyl)amino][1,1′-biphenyl]-4-carboxylic acid, trifluoroacetate salt]
13	CC(c1ccc(NC(=O)N2CCC[C@@H]2C(=O)Nc2ccc(-c3ccc(C(=O)O)cc3)cc2)cc1)C(F)(F)F (stereo partly drawn) [Example 147, 4′-[(1-{[4-(1,1,1-trifluoropropan-2-yl)phenyl]carbamoyl}-D-prolyl)amino][1,1′-biphenyl]-4-carboxylic acid]
240	CC(C)c1ccc(NC(=O)N2CCC[C@@H]2C(=O)Nc2ccc(-c3cccc(C(N)=O)c3)cc2)cc1 [Example 148, (2R)-N^2-(3′-carbamoyl[1,1′-biphenyl]-4-yl)-N^1-[4-(propan-2-yl)phenyl]pyrrolidine-1,2-dicarboxamide]
21	O=C(O)c1ccc(-c2ccc(NC(=O)[C@H]3CCCN3C(=O)Nc3ccc(C4CC4)c(F)c3)cc2)cc1 [Example 149, 4′-({1-[(4-cyclopropyl-3-fluorophenyl)carbamoyl]-D-prolyl}amino)[1,1′-biphenyl]-4-carboxylic acid]
86	Cc1cc(NC(=O)[C@H]2CCCN2C(=O)Nc2ccc(C(C)C)cc2)cnc1-c1ccc(C(=O)O)cc1 [Example 150, 4-{3-methyl-5-[(1-{[4-(propan-2-yl)phenyl]carbamoyl}-D-prolyl)amino]pyridin-2-yl}benzoic acid]
110	COc1cc(C(=O)O)ccc1-c1ccc(NC(=O)[C@H]2CCCN2C(=O)Nc2ccc(C(C)C)cc2)nc1 [Example 151, 3-methoxy-4-{6-[(1-{[4-(propan-2-yl)phenyl]carbamoyl}-D-prolyl)amino]pyridin-3-yl}benzoic acid]
44	CC(C)c1ccc(NC(=O)N2CCC[C@@H]2C(=O)Nc2ccc3cc(C(=O)O)ccc3c2)cc1F [Example 152, 6-[(1-{[3-fluoro-4-(propan-2-yl)phenyl]carbamoyl}-D-prolyl)amino]naphthalene-2-carboxylic acid]
